According to ChEMBL document CHEMBL4033765, “Synthesis and Evaluation of a Linkable Functional Group-Equipped Analogue of the Epothilones” (2017):

Key:
PC-3 = assay: Growth inhibition of human PC3 cells after 4 days by SRB assay; type: functional; conditions: PC-3, 96 h
A549 = assay: Growth inhibition of human A549 cells after 4 days by SRB assay; type: functional; conditions: A549, 96 h

Row | SMILES | GI50 (PC-3) [nM] | GI50 (A549) [nM]
1 | CC(=O)O[C@H]1C(=O)[C@@]2(C)[C@H]([C@H](OC(=O)c3ccccc3)[C@]3(O)C[C@H](OC(=O)[C@H](O)[C@@H](NC(=O)c4ccccc4)c4ccccc4)C(C)=C1C3(C)C)[C@]1(OC(C)=O)CO[C@@H]1C[C@@H]2O [PACLITAXEL] | 5.8 | 3.7
2 | C/C(=C\c1csc(C)n1)[C@@H]1C[C@@H]2O[C@]2(C)CCC[C@H](C)[C@H](O)[C@@H](C)C(=O)C(C)(C)[C@@H](O)CC(=O)O1 [PATUPILONE] | 1.7 | 0.7
3 | COCCOCCC(=O)NCCCC[C@H]1C(=O)C(C)(C)[C@@H](O)CC(=O)O[C@H](/C(C)=C/c2csc(C)n2)C[C@@H]2O[C@]2(C)CCC[C@H](C)[C@@H]1O | 1.9 | 0.9
4 | CC(=O)NCCCC[C@H]1C(=O)C(C)(C)[C@@H](O)CC(=O)O[C@H](/C(C)=C/c2csc(C)n2)C[C@@H]2O[C@]2(C)CCC[C@H](C)[C@@H]1O | 2 | 1
